# Measurements published in US7794972B2, “Benzoate-and anthranilate-inducible promoters” (priority 2002, dated 2010).
# “Also recorded” adds a separate entry of the source.
# B1: Pant promoter with multi-copy antR: anthranilate-inducible promoter of P. fluorescens with the AntR activator coding sequence, a1-c1395 of SEQ ID NO:13 (nucleic acid)
# DNA: AGCTTGCATGCCTGCAGGTTTAAACAGTCGACTCTAGACTTAATTAACTATCGCAGGCAAGCCAGCTCCCACAGATTGTTTTTCATCCAGTTCAAGTAATGCGCAGGCGCTTGCGCTGCAATGTCTGGCTGGGCGACTCATCGAACAGCTTGCGGTACTCCGCCGAAAACCGCCCCAAATGCGTAAACCCCCAACCCAGGGCGATTTCAGAGATGGTGCGGATCGAGCCCTGCTCCAGAATTTCTTGGCGCACCGCCCCCAACCGATGCTTCTTCAAATACGACATGGGCGACAGTGCGAAGTACTTGCGAAACGCATCGAACAGTTTGAAACGCGACACGCCCGCCGCCGCTTCCAGGTCTTCCAGGTGCAGCGCTTCACGGGCGTTGTCGTGGATAAATTGCCGCGCGCGGATCAGGTAGTGCGGCAGTTTCACCCCCAGCACGTCGCGCAGTTCTTCGGAGTAGTTATTCGGTTGGGCCAGGATCAGGCCCTTGATCAGCGAGCTTTCCAGGTCGCGAGTAAACGCCGCCTGCTCGTACAGTTCGCTGCTGCGCTCCAGTTCGGCGATGAAATAACGCGCCATGCGCCACCACGAAGCCGGTGCTCCGTCCACAGCATCCATCACCGACTCAAAGCGCAGCGGCGCATCAATGGGCCGTTGCAGCAAACCTTCCAGCGACTCGCTCATCGCCGCACGGGTGATTACCACCTGCAACTTGCGGCAGTCACCGGAAATCGCCAGCACCTGATGCTCATTGGGCGAAATGATCACGCCTTGGTCGCGGTTGGAACTGAGACGTTCACCGTTCTTGCTCAGCTCCTGCTCGCCCACCAGTGGCAGGCTCAAGCTGTAGCTGCTGAAGTGCTCGGCGTCTTCGATGTCGATGGTCACATCAGTGCCGTACTCGATCACGCCCAGGGTGGTGGCGCGGGATTTGAACACGTTGGCGCTGTGGTGAAAGCGCAGGCGCTCGGGGGTTGCCGTCGCCAGGCGATGGGGCCCGCAGATGCCGGACATCCAGCTGCGCGCGCCTTCCAGGTCGAAGCGTTGAATATGAATATCGCGTGTCTGACTAGTCATCAGGGTGCACCCACGGCGGTTAGGCGTTTGCGCGCTCTGACGGCGCGTCGTTGAACCTCGACAGCAAGTTCCAGGCCACGCCAGTGCAGTTCTCACTGGGTGGATAGCAACGGTCGACTATGTGGATAAACCCCAGAGTTTTGCGACCATCGCCCGCCATCACAGTAGCGCATGCCGTCACCGGCGCGCACCGTCATGGGTATTTGCCGCCCAACTTTGCGGCCTACGTTCCCCCATTAAGCGGATAGCCCGCCACCGCATCGCAGCCGCTTAATGGCTCACCGTTTAGCCATGATCAAAAGGTGCCTCCC
# modifications: Construct containing the pDOW1057 Pant-Pben tandem promoter
# Assays:
# Type in all cases: cell-based, Pseudomonas fluorescens
# [1] = system: Pant promoter (Pant713, antR/Pant); experiment: Anthranilate promoter (Pant) reporter gene induction (lacZ / phoA); conditions: for induction of the anthranilate promoter: P. fluorescens, reporter gene lacZ or phoA
# Method: (§1) Cell growth for induction: Strains of interest were grown overnight (at 30° C. with shaking at 250 rpm) in 1×M9 minimal salts medium (diluted from a 5× preparation purchased from Fisher Scientific, Pittsburgh, Pa.) supplemented with 0.5% or 1% (w/v) glucose, 1 mM MgSO4, and trace elements (for trace elements, the present examples used a solution containing salts of sodium, magnesium, manganese, iron, and cobalt, all at less than 0.5 mg/mL final concentration). Strains were then subcultured 1:4 in the same medium to a volume of 10 or 20 mL and then induced with 0-10 mM concentrations of anthranilate or benzoate, as indicated.
# (§2) Strains of interest were grown overnight at 30° C. in 1×M9 medium supplemented with 0.5% or 1% (w/v) glucose, 1 mM MgSO4, and 5L/L trace elements (as described above), and optionally tetracycline at 15 ug/mL. These were then subcultured 1:4 or 1:5 in the same medium and then induced with indicated concentrations of anthranilate, benzoate, or other inducer, for a desired amount of time (e.g., for 2, 4, 6, 8, 12, or 24 hours, or overnight). Samples were taken at indicated times and those samples were assayed for reporter gene activity. Results are reported at time points taken at a given number of hours post-induction; time points are indicated by either a numeral for the number of hours, and in some cases this number is immediately preceded by the letter “I” indicating post-induction.
# (§3) We prepared enough of the following assay medium to provide for each sample well of a 96-well plate (i.e. for all those wells used, with at least one well being used for each time point measured during the reaction course for each sample): 152 μL Z buffer (0.06M Na2HPO4.7H2O, 0.04M NaH2PO4.H2O, 0.01M KCl, 0.001M MgSO4.7H2O)+8 μL 1M β-mercaptoethanol. For each 900 μL of the resulting mix, we added one drop of 0.1%SDS and two drops of CHCl3, mixed (using a vortex-type mixer), and then added 144 μL thereof to each well. 16 μL of cells were then added to each well and the plate sealed with a plastic plate sealer. The plate was then mixed (by vortex) for 10 seconds, and then equilibrated to incubation temperature (room temperature) for 5 minutes. 50 μL 4 mg/mL ONPG was then added. When a significant yellow color developed, 90 μL stop solution (1M Na2CO3) was added and the reaction time recorded. The resulting color intensity for each sample was then read at A420 and A550. In addition, the cell density of each culture providing the 16 μL of cells used in each sample was read at A600. Miller Units were calculated as follows: • 1000 * ((A420−(1.75*A550))/(time(in minutes) *0.1 * A600)). Alkaline Phosphatase Assas
# (§4) For this assay we prepared SIGMA FAST (p-nitrophenyl phosphate (PNPP) substrate, from Sigma-Aldrich Corp., St. Louis, Mo.) by adding one of each tablet provided by the manufacturer (one table each PNPP and Tris; stored at −20° C.) to 20 mL ddH2O, giving a final concentration of 1 mg/mL PNPP and 0.2M Tris. At each time point, for each sample, 50 μL SIGMA FAST substrate was combined with 5 μL of cells. The result was then incubated at room temperature for 30 minutes. The resulting color intensity for each sample was then read at A410. In addition, the cell density of each culture providing the 5 μL of cells used in each tested sample was read at A600 (i.e. the cell cultures were read in a 96 well plate). The value of A410/(0.1 * A600) was then calculated to express alkaline phosphatase activity/cell.
# Anthranilate, like benzoate, is an inexpensive low toxic compound that can be utilized by P. fluorescens, making it an ideal compound to investigate as an inducer. […]. […] Expansion of the promoter clone to include the transcriptional activator gene 5′ of the antA open reading frame (ORF) increased expression levels of the lacZ fusion. […]
# [2] = system: Pant-Pben tandem promoter; experiment: Pant-Pben tandem promoter reporter gene induction (lacZ); conditions: for induction of the Pant-Pben tandem promoter: P. fluorescens
# Method: as §1, §2, §3
# However, unlike the catabolite-repressed Pben promoter, the activity of the Pant promoter was not inhibited during fermentation A fusion of these two promoters was created by linking them together, as shown in SEQ ID NO:3, i.e. by cloning a fragment antR and Pant, upstream of the Pben278 promoter fused to lacZ.
# [3] = system: Pben promoter (Pben509, Pben278); experiment: Benzoate promoter (Pben) reporter gene induction (lacZ β-galactosidase / phoA alkaline phosphatase); conditions: for induction of the benzoate promoter (Pben509, Pben278): P. fluorescens MB101, reporter gene lacZ or phoA
# Method: as §1, §2, §3, §4
# Benzoate-inducible promoter activity was tested by fusing the DNA fragment containing the putative promoter sequence of Pben509, or of Pben278 (described below), upstream of an easily assayable reporter gene (i.e. either lacZ, which encodes β-galactosidase and was used as the chief reporter gene, orphoA). The resulting plasmid was transformed into P. fluorescens MB101. […]
Molecule,induction of the anthranilate promoter [1],induction of the Pant-Pben tandem promoter [2],"induction of the benzoate promoter (Pben509, Pben278) [3]",further results
Nc1c(Cl)cccc1C(=O)O [3-chloro-anthranilate],inducible,,,
Nc1cc(Cl)ccc1C(=O)O [4-chloro-anthranilate],inducible,,,
Nc1ccc(Cl)cc1C(=O)O [5-chloro-anthranilate],inducible,,,
"Nc1cccc(Cl)c1C(=O)O [6-chloro-anthranilate, 6-chloroanthranilate]",inducible,,,
Nc1ccccc1C(=O)O [anthranilic acid],inducible,inducible,,
O=C(O)c1ccccc1 [benzoic acid],,inducible,inducible,
Oc1ccccc1O [catechol],,,fail to induce,
"O=C(O)/C=C\C=C/C(=O)O [cis, cis-muconate]",,,fail to induce,
Cc1cccc(C(=O)O)c1 [m-toluic acid],,,inducible,
Cc1ccccc1C(=O)O [o-toluate],induce this promoter as well as does anthranilate,induce this promoter as well as does anthranilate,,
Nc1ccccc1C(=O)[O-].[Na+] [sodium anthranilate],inducible,inducible,,"strength of the tandem antR/Pant-Pben278 construct upon induction, compared with component promoter alone ([2]; lacZ fusion, in the presence of glucose): improved"
O=C([O-])c1ccccc1.[Na+] [sodium benzoate],,,inducible; also recorded: show β-galactosidase or alkaline phosphatase activity,"induction of the benzoate promoter (Pben509, Pben278) ([3]; listed as benzoate): benzoate was indeed the inducer for Pben; induction of expression of exogenous genes, benzoate promoter ([3]; induced with 5 mM sodium benzoate): about 250 fold"
B1,,,,relative strength of promoter versus Pben278 promoter ([1]; Pant with multi-copy antR): approximately ⅕
